Common to all, as to assay: DTP human tumour cell line panel, 48 h
Experiment [1] has as its system HCT-116 colon.
Experiment [2] has as its system HOP-62 NSCLC.
The test system of experiment [3] is NCI-H23 lung.
The subject of experiment [4] is NCI-H460 lung.
The subject of experiment [5] is SF-295 CNS.
The subject of experiment [6] is SNB-19 CNS.
For experiment [7], the system named is IGROV1 ovarian.
The subject of experiment [8] is NCI-H226 lung.
In experiment [9] the test system is HT29 colon.
For experiment [10], the system named is KM12 colon.
Experiment [11] deals with SK-MEL-5 melanoma.
The test system of experiment [12] is SF-268 CNS.
In experiment [13] the test system is UACC-257 melanoma.
Experiment [14] concerns A498 renal.
Experiment [15] relates to U251 CNS.
In experiment [16] the test system is HL-60(TB) leukemia.
The test system of experiment [17] is SR leukemia.
Experiment [18] relates to M14 melanoma.
For experiment [19], the system named is MDA-N.
Experiment [20] concerns BT-549 breast.

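Cells were grown in 96-well plates and exposed to each compound for 48 hours at five concentrations; endpoints were interpolated linearly between bracketing concentrations, or set to the highest concentration if not reached. TGI marks complete inhibition of growth.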

Broadly, the TGI is the concentration giving total growth inhibition. The low end stands for greater sensitivity of the cells, the high end for lower sensitivity of the cells. Regarding `CCOC(=O)CN1CCSC1=NC#N`, the TGI in experiment [1] is over 100 µM; in experiment [2], over 100 µM; in [3], over 100 µM; in experiment [4], over 31.6 µM; in [5], over 42.7 µM; in [6] it was over 100 µM. Moreover, the TGI in experiment [7], in experiment [8], in [9], in experiment [10], in [11] and in experiment [12] was over 100 µM in each case. Further, the TGI in experiment [13], in experiment [14], in experiment [15] and in experiment [16] was over 100 µM each time.

Consider `COC(=O)[C@@]12OC[C@]34C([C@@H](O)C1O)[C@@]1(C)CC(=O)C(O)=C(C)C1C[C@H]3OC(=O)[C@H](OC(=O)CC(C)C(F)(F)F)[C@H]42` (stereo not given in full), for which the total growth inhibition concentration (TGI) in [1] amounted to 0.18 µM; in [2] it was 0.594 µM; in experiment [3], 0.0717 µM; in [4], 0.0554 µM; in experiment [17] it was 0.0215 µM; in experiment [5], 0.191 µM. The TGI was determined as 0.108 µM in experiment [6]; 1.05 µM in experiment [7]; 0.0338 µM in [8]; 0.146 µM in experiment [9]; 0.563 µM in experiment [10]; 0.0731 µM in [11]. The TGI in experiment [12] came out at 0.644 µM; in [13], 0.547 µM; in experiment [14], 0.121 µM; in experiment [15] it was 0.214 µM; in experiment [16], 0.0175 µM; in experiment [18], 0.124 µM.

With `CCOC(CCCN1CCC2(CC1)C(=O)N(C)CN2c1ccccc1)(OCC)c1ccc(F)cc1`, the TGI in [1] turned out to be 14.2 µM; in experiment [2], 14.7 µM; in [3] it was 39.5 µM; in experiment [5], 25.3 µM; in experiment [6], 22.6 µM; in experiment [7], 31.2 µM. Besides, the TGI is 24.5 µM in experiment [19]; 33.6 µM in [8]; 14 µM in experiment [9]; 29.5 µM in experiment [10]; 14.9 µM in experiment [11]; 29.7 µM in [12]. The TGI in experiment [13] worked out at 18.5 µM; in experiment [15], 26.3 µM; in experiment [16], 30.6 µM; in experiment [18], 23.9 µM.

On to `[O-]c1on[n+]2c1c(Nc1ccc(Cl)cc1)nc1ccccc12`, for which the TGI in [1], in experiment [3], in experiment [4], in experiment [17], in experiment [5] and in experiment [6] was over 100 µM throughout. Moreover, the TGI in experiment [7], in [9], in [10], in experiment [11], in experiment [12] and in [13] was over 100 µM throughout. Further, the TGI in experiment [14], in [15], in experiment [16] and in [18] was over 100 µM throughout.

For `CCN1C(=O)C(=Cc2ccc(-c3ccccc3)cc2)C(=O)N(CC)C1=S`, the TGI in experiment [1], in [2], in [3], in experiment [4], in [5] and in experiment [6] was over 100 µM each time. Moreover, the TGI in experiment [7], in experiment [8], in experiment [9], in [10], in experiment [20] and in experiment [11] was over 100 µM in each case. Moreover, the TGI in [12], in [13], in [15], in experiment [16] and in experiment [18] was over 100 µM in each case.

On to `O=C(CC(C(=O)c1cccs1)c1ccsc1)c1ccsc1` (stereo not given), for which the TGI was over 100 µM in experiment [1]; over 100 µM in experiment [2]; over 100 µM in experiment [3]; over 100 µM in experiment [4]; over 100 µM in experiment [17]; 93.3 µM in experiment [5]. Further, the TGI in [6] was over 100 µM; in experiment [7], over 100 µM; in experiment [9] it was over 100 µM; in [10] it was over 100 µM; in [20], over 100 µM; in [11], 64 µM. For the same compound, the TGI is over 100 µM in experiment [12]; over 100 µM in [13]; 57.9 µM in experiment [14]; over 100 µM in experiment [15]; over 100 µM in experiment [16]; 50.8 µM in experiment [18].

As for `CC(Oc1ccc(OCC2CCCCC2)cc1)C(=O)N(CCO)CCO` (stereo not given), the TGI in [1], in [3], in experiment [4], in experiment [5], in experiment [6] and in experiment [7] was over 100 µM each time. In addition, the TGI in [8], in experiment [9], in experiment [10], in experiment [11], in experiment [12] and in experiment [13] was over 100 µM throughout. Also, the TGI in [14], in experiment [15], in experiment [16] and in experiment [18] was over 100 µM each time.

Consider `CC(CCc1ccc2c(c1)c(=N)c1ccc(N)cc1n2O)CC(C)(C)C` (stereo not given), for which the TGI came out at 4.03 µM in experiment [1]; 3.31 µM in [2]; 4.03 µM in [17]; 7.29 µM in [5]; 2.95 µM in experiment [7]; 3.51 µM in experiment [10]. Moreover, the TGI in [11] worked out at 3.01 µM; in experiment [12] it was 4.23 µM; in [13] it was 3.63 µM; in experiment [14], 3.51 µM; in experiment [15], 2.67 µM; in [16] it was 3.42 µM. In [18], this compound yielded a TGI of 3.18 µM.

For the origin of these results see PubChem BioAssay (NCI).
